Laboratory results taken from article PMC10855164, “Ligand-Based Design of Selective Peptidomimetic uPA and TMPRSS2 Inhibitors with Arg Bioisosteres” (International Journal of Molecular Sciences, 2024).
Where “and” joins values, the source holds several entries; their conditions need not be identical. Identical values can stand only once.

Key:
Assay type in all cases: biochemical
[1] = biological target: T1, uPA (Homo sapiens, UniProt P00749); assay: fluorometric enzyme inhibition assay, uPA (Z-Gly-Gly-Arg-AMC); conditions: for Ki / Ki uPA: from IC50 by Cheng-Prusoff, n.a. = not active, <80% inhibition at 20 µM; for Selectivity index [SI] uPA: quotient Ki uPA / Ki TMPRSS2
T1 construct: purchased Sigma Aldrich
Method: (§1) The inhibitory activity of the synthesized compounds towards the respective main- and off-target proteases was measured via fluorometric and colorimetric assays. Thus, fluorogenic AMC- or colorimetric pNA-based substrates with a peptide sequence suitable for the tested protease were utilized (see Supplementary Figure S2). At first, the compounds were screened against […] proteases (uPA, TMPRSS2, matriptase, tPA, thrombin, factor Xa) at 20 µM, and a cut-off value of 80% inhibition at this concentration was set, for the differentiation between nonactive (n.a.) and active inhibitors. Due to the reversible inhibition mechanism of the ketobenzothiazole derivates, the IC50 values were determined with Graphpad Prism 9, and afterwards converted to the corresponding Ki values for an adequate comparison between the inhibitory activities of the compounds toward all tested proteases. The Ki values were calculated using the Cheng–Prusoff equation [43].
(§2) Fluorometric inhibition assays
(§3) The inhibitory activities of the compounds against the proteases were determined by enzyme inhibition assays with fluorogenic or colorimetry-based substrates. The fluorescence, caused by cleaved AMC from the fluorogenic substrates (uPA, matriptase, TMPRSS2, thrombin), was measured in white flat-bottom 96-well plates from Greiner Bio-One using a Tecan Infinite F200 Pro plate reader. The absorption, caused by cleaved pNA from colorimetric substrates (factor Xa and tPA), was measured in transparent flat-bottom 96-well plates from Greiner Bio-One using a Tecan Spark 10M plate reader. All measurements with the main-target proteases (uPA and TMRPSS2) were performed as triplicates and with the off-target proteases (matriptase, factor Xa, tPA, thrombin) as duplicates. The substrates and the compounds were prepared as stock solutions in DMSO. Each well contained a total volume of 200 µL, consisting of 185 µL buffer, 5 µL inhibitor in DMSO or pure DMSO as negative control, 5 µL substrate in DMSO and 5 µL enzyme solution in buffer. Dilution series were prepared for the determination of the inhibition constants. The fluorescence signal and absorbance were measured every 30 s for 10 min at 25 or 37 °C with the corresponding excitation/emission (λex = 380 nm / λem = 460 nm) and absorbance (λabs = 405 nm) wavelengths, depending on the targeted protease. IC50 values for the reversible inhibitors were calculated with Graphpad Prism 9 by fitting the remaining enzymatic activity to the four parameter IC50 equation with Y [%] as the residual enzyme activity , Ymax as the maximum value of the dose response curve at inhibitor concentrations [I] = 0 µM, Ymin as the minimum value at high inhibitor concentrations and s as the hill coefficient.[1] The fluorescence progress curves and sigmoidal dose-response curve for inhibition of uPa by compound 38 is shown exemplary in Figure S2.
Figure S2: (left) Fluorescence progress curves for inhibition of uPa by cpd. 38. (right) Plot showing the respective IC50 value […]
(§4) Due to the dependence of the IC50 value on the substrate affinity and concentration, the Ki values were calculated with the Cheng-Prusoff equation, using the final substrate concentration [S] and the Michaelis-Menten constant KM, (2) for appropriate comparison of the inhibitory activities to the other enzymes and inhibitors.[1]
(§5) KM values were determined by fitting to the Michaelis-Menten equation using Graphpad Prism 9 with v [ΔF/min] as the substrate hydrolysis rate, vmax as the maximum slope of the dose-response curve, and the substrate [S] concentration.[1] The different substrates were serially diluted in DMSO. The measurement was done in analogy to the determination of the inhibitory activity, but with 5 µL pure DMSO instead of inhibitor solution. The fluorescence progress curves and Michaelis-Menten curve of the specific substrate of uPA is shown exemplarily […]
Figure S3: (left) Fluorescence progress curves of cleavage of Z-Gly-Gly-Arg-AMC by uPA. (right) Michaelis-Menten curve […]

[2] = biological target: T2, TMPRSS2 (Homo sapiens, UniProt O15393); assay: fluorometric enzyme inhibition assay, TMPRSS2 (Boc-Gln-Ala-Arg-AMC); conditions: for Ki / Ki TMPRSS2: from IC50 by Cheng-Prusoff, n.a. = not active, <80% inhibition at 20 µM; for Selectivity index [SI] TMPRSS2: quotient Ki TMPRSS2 / Ki uPA
T2 construct: purchased Cusabio
Method: as §1, §2
as §3, with “S2. […]” for “S2.”
as §4
as §5, with “solution.” for “solution. The fluorescence progress curves and Michaelis-Menten curve of the specific substrate of uPA is shown exemplarily”
(§6) The following buffers and substrates were used for the respective assays: uPA (50 mM Tris HCl pH = 7.9, 150 mM […]
(§7) TMPRSS2 (25 mM Tris HCl pH = 8.0, 150 mM NaCl, 5 mM CaCl2, 0.001% TX-100, 100 µM Boc-Gln-Ala-Arg-AMC (KM: 68.63 ± 6.64 µM), 25 °C, 3 nM TMPRSS2)[3]; matriptase (50 mM Tris HCl pH = 8.0, 150 mM NaCl, 5 mM CaCl2, […]

[3] = biological target: T3, matriptase (Homo sapiens, UniProt Q9Y5Y6); assay: fluorometric enzyme inhibition assay, matriptase (Boc-Leu-Arg-Arg-AMC); conditions: for Ki / Ki Matriptase: from IC50 by Cheng-Prusoff, n.a. = not active, <80% inhibition at 20 µM
T3 construct: catalytic domain of matriptase (uniport: Q9Y5Y6 aa 596–855); hexa-histidine (N); made in house; host or cells: Escherichia coli BL21 Gold (DE3)
T3 sequence (Q9Y5Y6 596-855): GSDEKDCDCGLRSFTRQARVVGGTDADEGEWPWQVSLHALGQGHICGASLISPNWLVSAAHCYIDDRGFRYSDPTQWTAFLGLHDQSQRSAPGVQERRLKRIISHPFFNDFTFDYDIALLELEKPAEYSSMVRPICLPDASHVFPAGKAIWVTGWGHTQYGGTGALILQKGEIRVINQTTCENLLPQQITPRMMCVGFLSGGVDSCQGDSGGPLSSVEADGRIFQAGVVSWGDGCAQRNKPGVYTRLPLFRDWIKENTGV
Method: as §1, §2
as §3, with “S2. […]” for “S2.”
as §4
as §5, with “solution.” for “solution. The fluorescence progress curves and Michaelis-Menten curve of the specific substrate of uPA is shown exemplarily”
as §6, §7

[4] = biological target: T4, tPA (Homo sapiens, UniProt P00750); assay: colorimetric enzyme inhibition assay, tPA (N-methylsulfonyl-D-Phe-Gly-Arg-pNA); conditions: from IC50 by Cheng-Prusoff; n.a. = not active, <80% inhibition at 20 µM
T4 construct: purchased Sigma Aldrich
Method: as §1, §2
as §3, with “S2. […]” for “S2.”
as §4
KM values were determined by fitting to the Michaelis-Menten equation using Graphpad Prism 9 with v [ΔF/min] as the substrate hydrolysis rate, vmax as the maximum slope of the dose-response curve, and the substrate [S] concentration.[1] The different substrates were serially diluted in DMSO. […]

[5] = biological target: T5, thrombin (Homo sapiens, UniProt P00734); assay: fluorometric enzyme inhibition assay, thrombin (Z-Gly-Gly-Arg-AMC); conditions: for Ki / Ki Thrombin: from IC50 by Cheng-Prusoff, n.a. = not active, <80% inhibition at 20 µM; for Selectivity index [SI] Thrombin: quotient Ki thrombin / Ki uPA
T5 construct: purchased Bio-techne
Method: as §1, §2
as §3, with “S2. […]” for “S2.”
as §4
as §5, with “solution.” for “solution. The fluorescence progress curves and Michaelis-Menten curve of the specific substrate of uPA is shown exemplarily”
as §6, §7

[6] = biological target: T6, factor Xa (Homo sapiens, UniProt P00742); assay: colorimetric enzyme inhibition assay, factor Xa (Z-D-Arg-Gly-Arg-pNA); conditions: for Ki / Ki Factor Xa: from IC50 by Cheng-Prusoff, n.a. = not active, <80% inhibition at 20 µM; for Selectivity index [SI] Factor Xa: quotient Ki factor Xa / Ki uPA
T6 construct: purchased Bio-techne
Method: as §1, §2
as §3, with “S2. […]” for “S2.”
as §4
as §5, with “solution.” for “solution. The fluorescence progress curves and Michaelis-Menten curve of the specific substrate of uPA is shown exemplarily”
as §6, §7

[7] = quotient Ki matriptase / Ki uPA
[8] = quotient Ki matriptase / Ki TMPRSS2

T2 sequence (O15393 whole entry): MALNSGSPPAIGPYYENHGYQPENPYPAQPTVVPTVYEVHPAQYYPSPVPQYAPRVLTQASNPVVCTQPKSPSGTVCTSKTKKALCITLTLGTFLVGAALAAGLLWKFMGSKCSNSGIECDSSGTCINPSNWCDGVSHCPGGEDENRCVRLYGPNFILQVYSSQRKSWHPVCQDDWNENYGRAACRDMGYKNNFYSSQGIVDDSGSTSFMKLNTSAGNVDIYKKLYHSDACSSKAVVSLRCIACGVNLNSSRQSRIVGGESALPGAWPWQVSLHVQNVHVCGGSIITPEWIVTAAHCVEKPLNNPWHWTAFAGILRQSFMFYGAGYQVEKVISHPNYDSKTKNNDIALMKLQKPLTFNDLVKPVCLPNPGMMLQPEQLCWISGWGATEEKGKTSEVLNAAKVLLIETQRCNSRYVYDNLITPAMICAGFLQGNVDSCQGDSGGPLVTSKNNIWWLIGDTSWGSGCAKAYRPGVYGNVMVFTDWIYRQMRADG
T6 sequence (P00742 235-488 limits assumed): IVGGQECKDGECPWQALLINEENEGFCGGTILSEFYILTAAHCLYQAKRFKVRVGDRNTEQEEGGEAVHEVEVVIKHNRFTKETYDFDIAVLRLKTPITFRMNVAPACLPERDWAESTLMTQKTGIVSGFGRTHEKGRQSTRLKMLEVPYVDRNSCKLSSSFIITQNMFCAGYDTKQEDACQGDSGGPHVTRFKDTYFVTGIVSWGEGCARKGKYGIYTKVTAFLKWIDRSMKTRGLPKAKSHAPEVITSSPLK
T6 sequence (P00742 41-179 partner limits assumed): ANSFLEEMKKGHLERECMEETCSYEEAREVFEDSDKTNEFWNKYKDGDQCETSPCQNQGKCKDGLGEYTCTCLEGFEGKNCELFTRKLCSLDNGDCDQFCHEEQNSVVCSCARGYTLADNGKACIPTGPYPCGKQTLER
T4 sequence (P00750 36-562): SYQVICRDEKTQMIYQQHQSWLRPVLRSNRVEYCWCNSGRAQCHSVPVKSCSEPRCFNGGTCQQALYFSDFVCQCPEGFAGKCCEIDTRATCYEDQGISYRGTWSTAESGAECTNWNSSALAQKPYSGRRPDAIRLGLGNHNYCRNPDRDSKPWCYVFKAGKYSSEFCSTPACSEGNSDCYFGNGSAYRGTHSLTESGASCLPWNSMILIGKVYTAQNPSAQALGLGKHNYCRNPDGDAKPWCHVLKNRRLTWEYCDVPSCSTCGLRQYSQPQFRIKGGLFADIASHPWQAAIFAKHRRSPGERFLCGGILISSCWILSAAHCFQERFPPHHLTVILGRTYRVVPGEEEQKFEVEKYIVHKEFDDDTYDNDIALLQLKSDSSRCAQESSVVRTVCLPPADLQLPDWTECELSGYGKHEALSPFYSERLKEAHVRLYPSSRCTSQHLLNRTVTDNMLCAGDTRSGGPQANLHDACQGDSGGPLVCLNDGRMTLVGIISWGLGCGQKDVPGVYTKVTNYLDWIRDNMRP

Ki [1] | Ki [2] | Selectivity index [SI] TMPRSS2 [2] | Ki [3] | Selectivity index [SI] Matriptase [3, 7] | Ki tPA [4] | Selectivity index [SI] uPA [1] | Selectivity index [SI] Matriptase [3, 8] | Compound | further results
141 ± 28 nM | 5 ± 1 nM | 0.04 | 32 ± 14 nM | 0.2 | did not show inhibition |  |  | CC(=O)NCC(=O)NC(C(=O)NC(C)C(=O)NC(CCCNC(=N)N)C(=O)c1nc2ccccc2s1)C(C)O [Compound 14a, Ac-Gly-L-Thr-L-Ala-L-Arg-kbt] | Ki [5]: 4390 ± 1480 nM; Selectivity index [SI] Thrombin [5]: 31; Ki [6]: 3360 ± 320 nM
388 ± 95 nM |  |  |  |  |  |  |  | CC(=O)NCC(=O)NC(C(=O)NC(C)C(=O)NC(CCCNC(=N)N)C(=O)c1nc2ccc(F)cc2s1)C(C)O (stereo not shown) [Compound 14b] | 
82 ± 6 nM | 9 ± 1 nM | 0.1 | 59 ± 9 nM | 0.7 |  |  |  | CC(=O)NCC(=O)NC(C(=O)NC(C)C(=O)NC(CCCNC(=N)N)C(=O)c1nc2ccc(Cl)cc2s1)C(C)O (stereo not shown) [Compound 14c] | Ki [5]: 456 ± 72 nM; Selectivity index [SI] Thrombin [5]: 5; Ki [6]: 2450 ± 99 nM; Selectivity index [SI] Factor Xa [6]: 30
60 ± 15 nM | 6 ± 1 nM | 0.1 | 38 ± 2 nM | 0.6 |  |  |  | CC(=O)NCC(=O)NC(C(=O)NC(C)C(=O)NC(CCCNC(=N)N)C(=O)c1nc2ccc(Br)cc2s1)C(C)O (stereo not shown) [Compound 14d] | Ki [5]: 450 ± 69 nM; Selectivity index [SI] Thrombin [5]: 8; Ki [6]: 2850 ± 844 nM; Selectivity index [SI] Factor Xa [6]: 47
178 ± 19 nM |  |  |  |  |  |  |  | COc1ccc2nc(C(=O)C(CCCNC(=N)N)NC(=O)C(C)NC(=O)C(NC(=O)CNC(C)=O)C(C)O)sc2c1 (stereo not shown) [Compound 14e] | 

Continued, molecule first:

Compound | Ki [1] | Ki [2] | Selectivity index [SI] TMPRSS2 [2] | Ki [3] | Selectivity index [SI] Matriptase [3, 7] | Ki tPA [4] | Selectivity index [SI] uPA [1] | Selectivity index [SI] Matriptase [3, 8] | further results
CC(=O)NCC(=O)NC(C(=O)NC(C)C(=O)NC(CCCNC(=N)N)C(=O)c1nc2c(s1)CCCC2)C(C)O (stereo not shown) [Compound 15] | 435 ± 33 nM |  |  |  |  |  |  |  | 
CC(=O)NCC(=O)NC(C(=O)NC(C)C(=O)NC(CCCCNC(=N)N)C(=O)c1nc2ccccc2s1)C(C)O (stereo not shown) [Compound 20] |  |  |  |  |  | did not show inhibition |  |  | Ki uPA [1]: did not show inhibition; Ki TMPRSS2 [2]: did not show inhibition; Ki Matriptase [3]: did not show inhibition; Ki Thrombin [5]: did not show inhibition; Ki Factor Xa [6]: did not show inhibition
CC(=O)NCC(=O)NC(C(=O)NC(C)C(=O)NC(Cc1ccc(NC(=N)N)cc1)C(=O)c1nc2ccccc2s1)C(C)O (stereo not shown) [Compound 29] | 29 ± 2 nM | 10 ± 4 nM | 0.3 | 132 nM and 133 nM | 4 | did not inhibit |  |  | Ki Thrombin [5]: did not inhibit; Ki Factor Xa [6]: did not inhibit
CC(=O)N[C@@H](CC(N)=O)C(=O)N1CCC[C@H]1C(=O)N[C@@H](Cc1ccc(NC(=N)N)cc1)C(=O)c1nc2ccccc2s1 [Compound 30] | 479 ± 17 nM | 5 ± 1 nM |  | 60 ± 8 nM |  |  | 96 | 12 | 
CC(=O)N[C@@H](CC(N)=O)C(=O)N[C@@H](Cc1ccccc1)C(=O)N[C@@H](Cc1ccc(NC(=N)N)cc1)C(=O)c1nc2ccccc2s1 [Compound 31] | 3570 ± 421 nM | 0.4 ± 0.1 nM |  | 252 ± 67 nM |  |  | > 5000 | 630 | 
CC(=O)N[C@@H](CC(N)=O)C(=O)N[C@@H](CC1CCCCC1)C(=O)N[C@@H](Cc1ccc(NC(=N)N)cc1)C(=O)c1nc2ccccc2s1 [Compound 32] | 2690 ± 217 nM | 34 ± 4 nM |  | 3330 ± 1140 nM |  |  | 79 | 98 | 
CC(=O)N[C@@H](CC(N)=O)C(=O)N1CCC[C@H]1C(=O)N[C@@H](CC1CCC(NC(=N)N)CC1)C(=O)c1nc2ccccc2s1 (stereo partly shown) [Compound 39] | 936 ± 100 nM | 44 ± 7 nM |  | 1200 ± 181 nM |  |  | 21 | 27 | 
CC(=O)NCC(=O)N[C@H](C(=O)N[C@@H](C)C(=O)N[C@@H](Cc1cccc(NC(=N)N)c1)C(=O)c1nc2ccccc2s1)[C@H](C)O [Compound 45] |  |  |  |  |  | did not show inhibition |  |  | Ki uPA [1]: did not show inhibition; Ki TMPRSS2 [2]: did not show inhibition; Ki Matriptase [3]: did not show inhibition; Ki Thrombin [5]: did not show inhibition; Ki Factor Xa [6]: did not show inhibition
